Series [1] has as its system human Factor 11 mRNA. The series is described as follows: Antisense inhibition of human Factor 11 in HepG2 cells by microwalk gapmers, lipofectin, 75 nM (Example 3). In kind it is cell-based. In outline:
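HepG2 cells (10,000/well) were transfected via lipofectin with 75 nM 20-mer MOE gapmers (phosphorothioate, 5-methyl-C) for about 24 h. Factor 11 mRNA was measured by qRT-PCR, normalized to RIBOGREEN total RNA, and given as percent inhibition versus untreated cells.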

Series [2] relates to human Factor 11 mRNA. The series is described as follows: Dose-dependent inhibition of human Factor 11 in HepB3 cells, electroporation (Example 7). In kind it is cell-based. Particulars: for percent inhibition of human Factor 11 mRNA relative to untreated control cells: ~16 hours. On the procedure:
The gapmers were also transfected via electroporation and their dose dependent inhibition of human Factor 11 mRNA was measured. Cells were plated at a density of 20,000 cells per well and transfected via electroporation with 41.15 nM, 123.457 nM, 370.37 nM, 1111.11 nM, 3333.33 nM, and 10,000 nM concentrations of antisense oligonucleotide, as specified in Table 15. After a treatment period of approximately 16 hours, RNA was isolated from the cells and human Factor 11 mRNA levels were measured by quantitative real-time PCR. Human Factor 11 primer probe set RTS 2966 was used to measure mRNA levels. Factor 11 mRNA levels were adjusted according to total RNA content, as measured by RIBOGREEN. Results are presented as percent inhibition of human Factor 11, relative to untreated control cells.

A further series has as its system Factor 11 protein. Briefly: Factor 11 protein in monkey plasma by sandwich ELISA (Example 46). Type of series: in vivo, cynomolgus monkeys. The following applies: cynomolgus monkeys, 25 mg/kg. Put shortly:
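Monkeys (2 male, 2 female per group) dosed s.c. with antisense oligonucleotide at 25 mg/kg, three times weekly in week 1 then twice weekly through week 8; PBS controls. Plasma Factor 11 measured by sandwich ELISA (1:50 dilution, OPD, 490 nm); expressed as % reduction versus PBS.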
For orientation: In an ELISA, binding on a coated surface is turned into a signal by an enzyme label.

Series [3] in a line: Liver function, ALT, AST, bilirubin in cynomolgus monkeys (Example 46). In kind it is in vivo. The following applies: plasma. The procedure:
Groups, each consisting of two male and two female monkeys, were injected subcutaneously with 25 mg/kg of ISIS 416850, ISIS 449709, ISIS 445522, ISIS 449710, ISIS 449707, ISIS 449711, ISIS 449708, 416858, and ISIS 445531. Antisense oligonucleotide was administered to the monkeys at 25 mg/kg three times per week for week 1 and 25 mg/kg twice per week for weeks 2 to 8. A control group, consisting of two male and two female monkeys was injected subcutaneously with PBS according to the same dosing regimen. Body weights were taken 14 days and 7 days before the start of treatment and were then measured weekly throughout the treatment period. Blood samples were collected 14 days and 5 days before the start of treatment and subsequently several times during the dosing regimen for PT and aPTT measurements, and measurement of various hematologic factors. On day 55, the monkeys were euthanized by exsanguination while under deep anesthesia, and organs harvested for further analysis.
Plasma concentrations of alanine transaminase (ALT) and aspartate transaminase (AST) were measured and the results are presented in Tables 152 and 153 expressed in IU/L. Plasma levels of bilirubin were also measured and results are presented in Table 154 expressed in mg/dL. As observed in Tables 152-154, there were no significant increases in any of the liver metabolic markers after antisense oligonucleotide treatment.

The mark [4] stands for this setting: HepG2, lipofectin, ~24 h, gapmers targeted to nucleobases 656 to 704 of SEQ ID NO: 1.
Where [5] appears, read: HepG2 cells, lipofectin, gapmers targeted to nucleobases 1275 to 1318 of SEQ ID NO: 1.

Strand notation (5' to 3'): a small letter for the sugar, then the base; units joined by * are phosphorothioate-linked, units joined directly phosphodiester-linked; [ ] holds rarer units or linkages, { } end groups; capitals alone tell only the bases. e = 2'-O-(2-methoxyethyl) (MOE); [5mC] = 5-methylcytosine; d = 2'-deoxy (DNA)

The values that follow come from patent US20230263822A1, “MODULATION OF FACTOR 11 EXPRESSION” (Ionis Pharmaceuticals, Inc., priority 2008, published 2023).

The term % inhibition denotes the percentage by which the read-out fell short of the control. The IC50 is the concentration that inhibits the measured activity by half.

For the substance “416825 (antisense GCCCTTCATGTCTAGGTCCA; 5-10-5 gapmer, further chemistry not given here) [compound 416825]”, in the series on human Factor 11 mRNA [1] (setting [4]), the “% inhibition” value was determined as 92%. This substance gave an IC50 in the series on human Factor 11 mRNA [2] of 160 nM. The “percent inhibition of human Factor 11 mRNA relative to untreated control cells” value came to 32% with human Factor 11 mRNA [2] (41.15 nM); 40% in the series on human Factor 11 mRNA [2] (123.457 nM); 48% with human Factor 11 mRNA [2] (370.37 nM); 75% with human Factor 11 mRNA [2] (1111.11 nM); 90% in the series on human Factor 11 mRNA [2] (3333.33 nM); 92% in the series on human Factor 11 mRNA [2] (10000 nM).
Take “416826 (antisense ATGCCCTTCATGTCTAGGTC; 5-10-5 gapmer, further chemistry not given here) [compound 416826]”: in the series with human Factor 11 mRNA [1] (setting [4]), the “% inhibition” value worked out at 94%. In addition, in the series on human Factor 11 mRNA [2], the IC50 is 780 nM. Moreover, the “percent inhibition of human Factor 11 mRNA relative to untreated control cells” value is listed as 0% in the series on human Factor 11 mRNA [2] (41.15 nM); 0% in the series with human Factor 11 mRNA [2] (123.457 nM); 34% in the series on human Factor 11 mRNA [2] (370.37 nM); 61% in the series with human Factor 11 mRNA [2] (1111.11 nM); 87% in the series on human Factor 11 mRNA [2] (3333.33 nM); 92% in the series on human Factor 11 mRNA [2] (10000 nM).
Consider “416838 (antisense GCAACCGGGATGATGAGTGC; 5-10-5 gapmer, further chemistry not given here) [compound 416838]”, for which the “% inhibition” value in the series with human Factor 11 mRNA [1] (HepG2 cells, lipofectin, gapmers targeted to nucleobases 1018 to 1042 of SEQ ID NO: 1) was found to be 94%. Moreover, the IC50 with human Factor 11 mRNA [2] was determined as 1200 nM. In addition, the “percent inhibition of human Factor 11 mRNA relative to untreated control cells” value is listed as 12% in the series with human Factor 11 mRNA [2] (41.15 nM); 9% in the series on human Factor 11 mRNA [2] (123.457 nM); 28% in the series with human Factor 11 mRNA [2] (370.37 nM); 40% in the series with human Factor 11 mRNA [2] (1111.11 nM); 77% with human Factor 11 mRNA [2] (3333.33 nM); 88% in the series with human Factor 11 mRNA [2] (10000 nM).
Regarding “416864 (antisense GGCAGCGGACGGCATTGGTG; 5-10-5 gapmer, further chemistry not given here) [compound 416864]”, in the series on human Factor 11 mRNA [1] (setting [5]), the “% inhibition” value was 93%. The same substance yielded an IC50 with human Factor 11 mRNA [2] of 2200 nM. Also, the “percent inhibition of human Factor 11 mRNA relative to untreated control cells” value was determined as 4% in the series with human Factor 11 mRNA [2] (41.15 nM); 3% with human Factor 11 mRNA [2] (123.457 nM); 6% in the series with human Factor 11 mRNA [2] (370.37 nM); 35% in the series on human Factor 11 mRNA [2] (1111.11 nM); 75% in the series with human Factor 11 mRNA [2] (3333.33 nM); 87% in the series on human Factor 11 mRNA [2] (10000 nM).
For the substance “416892 (antisense GCCCTTCATGTCTAGGTCCA; 3-14-3 chimeric gapmer, further chemistry not given here) [compound 416892]”, the “% inhibition” value in the series with human Factor 11 mRNA [1] (setting [4]) is on record as 100%. Besides, in the series with human Factor 11 mRNA [2], the IC50 was 610 nM. Further, the “percent inhibition of human Factor 11 mRNA relative to untreated control cells” value in the series on human Factor 11 mRNA [2] (41.15 nM) was found to be 9%; in the series with human Factor 11 mRNA [2] (123.457 nM), 12%; in the series with human Factor 11 mRNA [2] (370.37 nM), 28%; in the series with human Factor 11 mRNA [2] (1111.11 nM), 65%; in the series with human Factor 11 mRNA [2] (3333.33 nM) it was 89%; in the series on human Factor 11 mRNA [2] (10000 nM), 98%.
As to “416925 (antisense GGTGCACAGTTTCTGGCAGG; 3-14-3 gapmer chemistry, further chemistry not given here) [compound 416925]”, the “% inhibition” value in the series with human Factor 11 mRNA [1] (setting [5]) worked out at 98%. Half-maximal inhibition in the series on human Factor 11 mRNA [2] (IC50) required 200 nM. In addition, the “percent inhibition of human Factor 11 mRNA relative to untreated control cells” value with human Factor 11 mRNA [2] (41.15 nM) is 27%; in the series with human Factor 11 mRNA [2] (123.457 nM), 39%; with human Factor 11 mRNA [2] (370.37 nM), 50%; in the series on human Factor 11 mRNA [2] (1111.11 nM), 73%; in the series with human Factor 11 mRNA [2] (3333.33 nM), 88%; with human Factor 11 mRNA [2] (10000 nM) it was 96%.
Regarding “416999 (antisense GCACAGTTTCTGGCAGGCCT; 2-13-5 gapmer chemistry, further chemistry not given here) [compound 416999]”, the “% inhibition” value in the series with human Factor 11 mRNA [1] (setting [5]) was determined as 92%. The concentration for half-maximal inhibition (IC50) with human Factor 11 mRNA [2] is 160 nM. Further, the “percent inhibition of human Factor 11 mRNA relative to untreated control cells” value in the series on human Factor 11 mRNA [2] (41.15 nM) amounted to 31%; in the series on human Factor 11 mRNA [2] (123.457 nM), 45%; in the series on human Factor 11 mRNA [2] (370.37 nM), 62%; with human Factor 11 mRNA [2] (1111.11 nM), 78%; in the series with human Factor 11 mRNA [2] (3333.33 nM), 94%; with human Factor 11 mRNA [2] (10000 nM), 97%.
For “ISIS 416858: MOE gapmer, nucleobases 1275 to 1318 of SEQ ID NO: 1 (Table 8) (antisense ACGGCATTGGTGCACAGTTT; MOE gapmer, wing and gap sizes not given here)”, the “Factor 11 protein levels in plasma” value with Factor 11 protein was “time-dependent decrease in protein levels”. For the same substance, the ALT worked out at 46 IU/L in series [3] (Day 31), 58 IU/L in series [3] (Day 55), 66 IU/L in series [3] (Day −5) and 43 IU/L in series [3] (Day −14). In addition, the AST in series [3] (Day 31) is 60 IU/L; in series [3] (Day 55) it was 69 IU/L; in series [3] (Day −5), 100 IU/L; in series [3] (Day −14), 64 IU/L. Besides, the Bilirubin in series [3] (Day 31) is 0.16 mg/dL; in series [3] (Day 55), 0.16 mg/dL; in series [3] (Day −5) it was 0.23 mg/dL; in series [3] (Day −14), 0.25 mg/dL.
For the substance “ISIS 445522: 5-8-5 or 6-8-6 MOE microwalk gapmer (Table 44) (antisense eG*e[5mC]*eA*e[5mC]*eA*dG*dT*dT*dT*d[5mC]*dT*dG*dG*e[5mC]*eA*eG*eG*e[5mC])”, the “Factor 11 protein levels in plasma” value with Factor 11 protein is “time-dependent decrease in protein levels”. Also, the ALT in series [3] (Day 31) stood at 40 IU/L; in series [3] (Day 55), 60 IU/L; in series [3] (Day −5) it was 45 IU/L; in series [3] (Day −14), 43 IU/L. In addition, the AST in series [3] (Day 31) is 46 IU/L; in series [3] (Day 55), 79 IU/L; in series [3] (Day −5), 47 IU/L; in series [3] (Day −14), 62 IU/L. Also, the Bilirubin in series [3] (Day 31) was 0.14 mg/dL; in series [3] (Day 55), 0.18 mg/dL; in series [3] (Day −5) it was 0.20 mg/dL; in series [3] (Day −14), 0.24 mg/dL.
In the case of “ISIS 449709: 3-8-3, 4-8-4, 2-10-2, 3-10-3 or 4-10-4 MOE microwalk gapmer (Table 46) (antisense eG*e[5mC]*eA*e[5mC]*dA*dG*dT*dT*dT*d[5mC]*dT*dG*dG*d[5mC]*eA*eG*eG*e[5mC])”, in the series on Factor 11 protein, the “Factor 11 protein levels in plasma” value is on record as “time-dependent decrease in protein levels”. Also, the ALT was 65 IU/L in series [3] (Day 31), 102 IU/L in series [3] (Day 55), 77 IU/L in series [3] (Day −5) and 73 IU/L in series [3] (Day −14). In addition, the AST in series [3] (Day 31) is on record as 45 IU/L; in series [3] (Day 55) it was 71 IU/L; in series [3] (Day −5), 51 IU/L; in series [3] (Day −14) it was 62 IU/L. The Bilirubin in series [3] (Day 31) was found to be 0.15 mg/dL; in series [3] (Day 55), 0.18 mg/dL; in series [3] (Day −5) it was 0.19 mg/dL; in series [3] (Day −14), 0.24 mg/dL.
